From patent publication US4550116A, “Piperidine derivatives” (Fordonal, S.A., priority 1983, dated 1985)

Assays:
rat hindquarters = assay: Rat hindquarter preparation, responses to high-K+ Krebs' solution; settings: for duration of anti-vasoconstrictor effects, compared with terfenadine and cinnarizine: in vitro, rat hindquarter preparation; for TEST A RAT HINDQUARTERS % Inhibition: maximum percentage inhibition, 10^-7 M perfused for 20 minutes, 80 mM K+; for TEST A RAT HINDQUARTERS % Recovery: recovery of response at 1 h following perfusion with normal Krebs' solution, 10^-7 M
Procedure: A Rat hindquarter preparation
Responses of rat hindquarters perfused at constant rate were elicited by high -K^+ (80 mM) Krebs' solution. Test compounds (10^-7 M) were perfused for 20 minutes and then compound-free Krebs' perfusion was resumed for 40 min.

histamine H1-receptor = assay: Antihistamine activity in anaesthetized rats (vasodepressor responses to histamine); assay type: in vivo, rat; settings: 0.3 mg/kg i.v.; pentobarbitone anaesthetized rats
Procedure: B. Antihistamine activity in anaesthetized rats
Test compounds were administered to pentobarbitone anaesthetized rats at 0.3 mg/kg i.v. following stable, submaximal, vasodepressor responses to histamine.

adrenaline = assay: Protection against a lethal dose of adrenaline; assay type: in vivo, swiss mice; settings: Mus musculus; 100 mg/kg oral, 1 h before 2 mg/kg intravenous adrenaline; mice; read-out: TEST D ANTI-ADRENALINE (animals surviving 15 min later)
Procedure: D. Protection against a lethal dose of adrenaline
Groups of 10 .male. swiss mice (25±3 g) were pretreated orally with compounds (100 mg/kg) suspended in carboxymethyl cellulose 1 h before receiving an intraveneous injection of 2 mg/kg adrenaline. The number of animals surviving 15 min later was noted and expressed as a percentage.

histamine aerosol = assay: Histamine aerosol, protection of guinea-pigs; assay type: in vivo, guinea-pig
in vivo = settings: mouse, oral, mice, 48 hour period, unit from method b50, read-out: TEST E ACUTE TOXICITY (approximate LD50)
Procedure: Acute toxicity was assessed in groups of 3 mice given the test compounds suspended in 1% carboxymethylcellulose at 30, 100, 300 and 1000 mg/kg orally.

[1] = 0.3 mg/kg oral, 1 hour before 5 minute challenge of nebulized histamine, groups of 5

Row | SMILES | duration of anti-vasoconstrictor effects, compared with terfenadine and cinnarizine (rat hindquarters) | TEST A RAT HINDQUARTERS % Inhibition (rat hindquarters) | TEST A RAT HINDQUARTERS % Recovery (rat hindquarters) | TEST B ANTIHISTAMINE IN RAT (inhibition of the histamine response) (histamine H1-receptor) | responders at 100 mg/kg (adrenaline) | TEST C ANTIHISTAMINE AEROSOL (protection) (histamine aerosol; [1]) | LD50 at 48 h (in vivo) | TEST C ANT[…] (protection) (histamine aerosol; [1]) | H1-histamine receptor antagonist properties, orally against histamine aerosol (histamine aerosol; oral)
1 | O=C(CCCN1CCC(OC(c2ccccc2)c2ccccc2)CC1)c1ccc(CC2CC2)cc1 [Compound 4, 4-diphenylmethoxy-1-[3-(4-cyclopropylmethylbenzoyl)propyl]-piperidine] | much longer lasting | 75% | 40% | ++ (25-50%) | 40% | – | – | – | –
2 | CC(C)(C)c1ccc(C(O)CCCN2CCC(C(O)(c3ccccc3)c3ccccc3)CC2)cc1 (stereo not drawn) [TERFENADINE, α-[4-(1,1-dimethylethyl)phenyl]-4-(hydroxydiphenylmethyl)-1-piperidinebutanol, reference compound] | – | 44% | 100% | – | 20% | + (10-25%) | > 1000 mg/kg | – | –
3 | OC(CCCN1CCC(OC(c2ccccc2)c2ccccc2)CC1)c1ccc(C2CCCCC2)cc1 (stereo not drawn) [Compound 6, 4-diphenylmethoxy-α-(4-cyclohexylphenyl)-1-piperidinebutanol] | – | 57% | 55% | ++ (25-50%) | 20% | – | – | – | –
4 | CC(C)(C)c1ccc(C(=O)CCCN2CCC(OC(c3ccc(F)cc3)c3ccc(F)cc3)CC2)cc1 [Compound 7, 4-di(4-fluorophenyl)methoxy-1-[3-(4-tert-butylbenzoyl)propyl]-piperidine] | much longer lasting | 62% | 13% | +++ (50-75%) | 40% | – | – | – | –
5 | CC(C)(C)c1ccc(C(O)CCCN2CCC(OC(c3ccccc3)c3ccccc3)CC2)cc1 (stereo not drawn) [Compound 8, 4-diphenylmethoxy-α-(4-tert-butylphenyl)-1-piperidinebutanol] | – | 69% | 58% | ++ (25-50%) | 60% | ++ (25-50%) | – | – | –
6 | CC(C)(C)c1ccc(C(=O)CCCN2CCC(OC(c3ccccc3)c3ccccc3)CC2)cc1 [Compound 1, 4-diphenylmethoxy-1-[3-(4-tert-butylbenzoyl)propyl]-piperidine] | – | – | 56% | – | 50% | – | – | +++ (>50% protection) | extremely potent
7 | CCc1ccc(C(=O)CCCN2CCC(OC(c3ccccc3)c3ccccc3)CC2)cc1 [Compound 3, 4-diphenylmethoxy-1-[3-(4-ethylbenzoyl)propyl]-piperidine] | much longer lasting | 65% | 50% | +++ (50-75%) | 20% | – | – | – | –
8 | CC(C)(C)c1ccc(C(=O)CCCN2CCC(OC(c3ccccc3)c3cccs3)CC2)cc1 (stereo not drawn) [Compound 5, 4-[α-(2-thienyl)benzyloxy]-1-[3-(4-tert-butylbenzoyl)propyl]-piperidine] | much longer lasting | 65% | 40% | +++ (50-75%) | – | – | – | – | –
9 | CC(C)c1ccc(C(=O)CCCN2CCC(OC(c3ccccc3)c3ccccc3)CC2)cc1 [Compound 2, 4-diphenylmethoxy-1-[3-(4-isopropylbenzoyl)propyl]-piperidine] | – | 59% | 50% | +++ (50-75%) | 50% | – | > 1000 mg/kg | – | –
